What was measured:
Type in all cases: in vivo
[1] = tested on: Echinochloa oryzacola Vasing.; assay: Test Example 1: herbicidal activity, application before weed generation in submerged conditions (symbol A); conditions: application herbicide amount 320 g/ha
Outline: (§1)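 Pre-emergence, paddy conditions: emulsifiable formulation diluted in water, dosed onto floodwater (4 cm depth) on sowing day. Alluvial soil; weeds sown mixed; rice transplanted at 2.5-leaf stage. Greenhouse 25–30 °C, 3 wk. Score 0–5 (5 = ≥90% kill, 0 = ≤5%).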

transplanted rice plant = assay: Test Example 1: effect on crop, application before weed generation in submerged conditions (symbol a); conditions: application herbicide amount 320 g/ha
Outline: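 Rice at 2.5 leaf stage transplanted into submerged soil (4 cm depth) sown with three weed species; herbicide applied before weed emergence.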

Scirpus juncoides [2] = assay: Test Example 2: herbicidal activity, application during weed generation in submerged conditions (symbol B); conditions: Table 23; application herbicide amount 320 g/ha; grade 0-5 by criteria of Test Example 1
Outline: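 Weeds emerging under flooded conditions were treated with compound formulated as an emulsion and diluted with water to the intended herbicide amount, poured onto the surface of 4 cm standing water. Seeds had been co-sown in alluvial soil; plants grew at 25° C. to 30° C. and were assessed after 3 weeks.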

Setaria viridis = assay: Test Example 4: herbicidal effect by soil treatment (symbol G); conditions: application herbicide amount 320 g/ha
Outline: (§2)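 Seeds were sown in sterilized diluvial soil, covered with about 1.5 cm of soil, and the soil surface was sprayed with a water-diluted emulsion of the compound at a predetermined rate. Plants grew in a greenhouse at 25° C. to 30° C.; effects were scored visually 3 weeks after application.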

Alopecurus myosuroides [3] = assay: Test Example 4: herbicidal effect by soil treatment (symbol J); conditions: application herbicide amount 320 g/ha
Outline: as §2

soybean = assay: Test Example 5: effect on crop by foliage application, plastic box (symbol d); conditions: 320 g/ha, 3 weeks after application
Outline: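 Crop seed is sown alongside grass and broadleaf weed species in spots in sterilized diluvial soil, then covered to a depth of about 1.5 cm. Plants grow in a greenhouse kept at 25° C. to 30° C.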

Monochoria vaginalis = assay: Test Example 1: herbicidal activity, application before weed generation in submerged conditions (symbol C); conditions: application herbicide amount 320 g/ha
Outline: as §1

beet = assay: Test Example 4: effect on crop by soil treatment (symbol f); conditions: application herbicide amount 320 g/ha
Outline: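 Plants are raised in a greenhouse (25° C. to 30° C.) from spot-sown seed, which sits under about 1.5 cm of sterilized diluvial soil in a box shared with weed species.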

Scirpus juncoides [4] = assay: Test Example 1: herbicidal activity, application before weed generation in submerged conditions (symbol B); conditions: application herbicide amount 320 g/ha
Outline: as §1

Alopecurus myosuroides [5] = assay: Test Example 5: herbicidal effect by foliage application, plastic box (symbol J); conditions: 320 g/ha, 3 weeks after application
Outline: (§3)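 Greenhouse foliar test: seedlings at 14 days, grown 25° C. to 30° C. in sterilized diluvial soil; compound applied as an aqueous dilution of an emulsion; response read 3 weeks after spraying.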

[6] = tested on: Echinochloa crus-galli var. crus-galli; assay: Test Example 5: herbicidal effect by foliage application, plastic box (symbol H); conditions: 320 g/ha, 3 weeks after application
Outline: as §3

Row | SMILES | Herbicidal effect grade, A: Echinochloa oryzacola Vasing. [1] | Effect grade on crop, a: transplanted rice plant (transplanted rice plant) | Herbicidal effect grade, B: Scirpus juncoides (Scirpus juncoides [2]) | G: Setaria viridis, herbicidal effect grade (Setaria viridis) | J: Alopecurus myosuroides, herbicidal effect grade (Alopecurus myosuroides [3]) | d: soybean, effect on crop grade (soybean) | Herbicidal effect grade, C: Monochoria vaginalis (Monochoria vaginalis) | f: beet, effect on crop grade (beet) | Herbicidal effect grade, B: Scirpus juncoides (Scirpus juncoides [4]) | J: Alopecurus myosuroides, herbicidal effect grade (Alopecurus myosuroides [5]) | H: Echinochloa crus-galli var. crus-galli, herbicidal effect grade [6] | G (Setaria viridis) herbicidal effect grade (Setaria viridis) | J (Alopecurus myosuroides) herbicidal effect grade (Alopecurus myosuroides [3]) | f (beet) effect on crop grade (beet)
1 | CCc1cc(C#C[Si](C)(C)C)cc(C)c1C1=C(O)CC(CC(C)=NOC)C1=O (mixture of isomers) [6-008] | 5 (Herbicidal ratio of 90% or more (almost completely withered)) | 5 (Herbicidal ratio of 90% or more (almost completely withered)) | 5 (Herbicidal ratio of 90% or more (almost completely withered)) | 5 (Herbicidal ratio of 90% or more (almost completely withered)) | 4 (Herbicidal ratio of 70% or higher and lower than 90%) | 1 (Herbicidal ratio of 5% or higher and lower than 20%) | 5 (Herbicidal ratio of 90% or more (almost completely withered)) | 0 (Herbicidal ratio of 5% or lower (almost no effect)) | 5 (Herbicidal ratio of 90% or more (almost completely withered)) | 5 (Herbicidal ratio of 90% or more (almost completely withered)) | 5 (Herbicidal ratio of 90% or more (almost completely withered)) | – | – | –
2 | CC#Cc1cc(C)c(C2=C(O)CC(CC(C)=NOC)C2=O)c(C)c1 (mixture of isomers) [6-009] | 5 (Herbicidal ratio of 90% or more (almost completely withered)) | 3 (Herbicidal ratio of 40% or higher and lower than 70%) | 0 (Herbicidal ratio of 5% or lower (almost no effect)) | 5 (Herbicidal ratio of 90% or more (almost completely withered)) | 5 (Herbicidal ratio of 90% or more (almost completely withered)) | 3 (Herbicidal ratio of 40% or higher and lower than 70%) | 0 (Herbicidal ratio of 5% or lower (almost no effect)) | 2 (Herbicidal ratio of 20% or higher and lower than 40%) | 2 (Herbicidal ratio of 20% or higher and lower than 40%) | 5 (Herbicidal ratio of 90% or more (almost completely withered)) | 5 (Herbicidal ratio of 90% or more (almost completely withered)) | – | – | –
3 | CON=C(C)CC1CC(O)=C(c2c(C)cc(C#CC3CC3)cc2C)C1=O (mixture of isomers) [6-010] | 5 (Herbicidal ratio of 90% or more (almost completely withered)) | 5 (Herbicidal ratio of 90% or more (almost completely withered)) | 3 (Herbicidal ratio of 40% or higher and lower than 70%) | 5 (Herbicidal ratio of 90% or more (almost completely withered)) | 5 (Herbicidal ratio of 90% or more (almost completely withered)) | 3 (Herbicidal ratio of 40% or higher and lower than 70%) | 1 (Herbicidal ratio of 5% or higher and lower than 20%) | 0 (Herbicidal ratio of 5% or lower (almost no effect)) | 4 (Herbicidal ratio of 70% or higher and lower than 90%) | 5 (Herbicidal ratio of 90% or more (almost completely withered)) | 5 (Herbicidal ratio of 90% or more (almost completely withered)) | – | – | –
4 | CON=C(C)CC1CC(O)=C(c2c(C)cc(C#CCO)cc2C)C1=O (mixture of isomers) [6-025] | 2 (Herbicidal ratio of 20% or higher and lower than 40%) | 3 (Herbicidal ratio of 40% or higher and lower than 70%) | 0 (Herbicidal ratio of 5% or lower (almost no effect)) | 4 (Herbicidal ratio of 70% or higher and lower than 90%) | 2 (Herbicidal ratio of 20% or higher and lower than 40%) | 0 (Herbicidal ratio of 5% or lower (almost no effect)) | 0 (Herbicidal ratio of 5% or lower (almost no effect)) | 0 (Herbicidal ratio of 5% or lower (almost no effect)) | 0 (Herbicidal ratio of 5% or lower (almost no effect)) | 5 (Herbicidal ratio of 90% or more (almost completely withered)) | 5 (Herbicidal ratio of 90% or more (almost completely withered)) | – | – | –
5 | C=Cc1cc(C)c(C2=C(O)CC(CC(C)=NOC)C2=O)c(C)c1 (mixture of isomers) [6-031] | 3 (Herbicidal ratio of 40% or higher and lower than 70%) | 1 (Herbicidal ratio of 5% or higher and lower than 20%) | 0 (Herbicidal ratio of 5% or lower (almost no effect)) | 0 (Herbicidal ratio of 5% or lower (almost no effect)) | 0 (Herbicidal ratio of 5% or lower (almost no effect)) | 0 (Herbicidal ratio of 5% or lower (almost no effect)) | 0 (Herbicidal ratio of 5% or lower (almost no effect)) | 0 (Herbicidal ratio of 5% or lower (almost no effect)) | 0 (Herbicidal ratio of 5% or lower (almost no effect)) | 5 (Herbicidal ratio of 90% or more (almost completely withered)) | 5 (Herbicidal ratio of 90% or more (almost completely withered)) | – | – | –
6 | CON=C(C)CC1CC(O)=C(c2c(C)cc(-c3ccc(Cl)nc3)cc2C)C1=O (mixture of isomers) [6-035] | 5 (Herbicidal ratio of 90% or more (almost completely withered)) | 5 (Herbicidal ratio of 90% or more (almost completely withered)) | 4 (Herbicidal ratio of 70% or higher and lower than 90%) | 5 (Herbicidal ratio of 90% or more (almost completely withered)) | 4 (Herbicidal ratio of 70% or higher and lower than 90%) | 2 (Herbicidal ratio of 20% or higher and lower than 40%) | 1 (Herbicidal ratio of 5% or higher and lower than 20%) | 0 (Herbicidal ratio of 5% or lower (almost no effect)) | 4 (Herbicidal ratio of 70% or higher and lower than 90%) | 5 (Herbicidal ratio of 90% or more (almost completely withered)) | 5 (Herbicidal ratio of 90% or more (almost completely withered)) | – | – | –
7 | CON=C(C)CC1CC(OC(=O)c2ccccc2)=C(c2c(C)cc(C)cc2C)C1=O (centres unmarked) [1-010] | 5 (Herbicidal ratio of 90% or more (almost completely withered)) | 5 (Herbicidal ratio of 90% or more (almost completely withered)) | 5 (Herbicidal ratio of 90% or more (almost completely withered)) | – | – | 4 (Herbicidal ratio of 70% or higher and lower than 90%) | 2 (Herbicidal ratio of 20% or higher and lower than 40%) | – | 5 (Herbicidal ratio of 90% or more (almost completely withered)) | 5 (Herbicidal ratio of 90% or more (almost completely withered)) | 5 (Herbicidal ratio of 90% or more (almost completely withered)) | 3 (Herbicidal ratio of 40% or higher and lower than 70%) | 5 (Herbicidal ratio of 90% or more (almost completely withered)) | 4 (Herbicidal ratio of 70% or higher and lower than 90%)
